{
  "source": "patent US8936667B2",
  "about": "“Aqueous leaching process for recovery of precious metals with addition of di-thiooxamide ligand” (Anglo Operations Limited, priority 2009, dated 2015)",
  "key": {"[1]": {"assay": "Leaching of Witwatersrand gold ore, parameter studies (Example 2)", "settings": "oxygen/permanganate, Eh above 60 mV; 25° C., 0.9 g/l DTO", "description": "A head sample was submitted with every batch of samples in order to minimise errors caused by discrepancies in analysis among batches. The metal extractions for a particular batch of samples were therefore calculated using the head sample analysis from the same batch.\nDeionised water was used in all preparation, dissolution, leach and washing steps.\nThe leach procedure was as follows:\nThe required amounts of ligand and alkaline water were mixed in a jacketed leach reactor until the ligand was fully dissolved. The ore was then added to the solution (unless otherwise specified, initial solids concentration was 17% m/m) and the reactor lid was fitted on. A stirring impeller, pH and (Ag/AgCl) redox electrodes, titration dispensing tube, temperature probe and gas distribution tube (if oxygen was used) were fitted into ports in the lid. The ore was then leached for the required amount of time. A water bath was used to maintain the leach temperature for the duration of the leach. The leach pH was controlled with an autotitrator. If oxygen was the oxidant, a mass flow controller was used to control oxygen-flow into the solution. At the end of the leach period, the slurry was filtered and the residue was given at least two water washes using water of the same pH as the leach solution, followed by a final wash with deionised water. […]"}, "physchem": {"assay": "physchem", "assay_type": "physicochemical", "procedure": "Prior to the leach, the ligand is dissolved in water which has been pre-adjusted to the leach pH. […] It was suspected that the ligand became doubly deprotonated at pH 13.5 and above."}},
  "data": [
    {"smiles": "NC(=S)C(N)=S", "note": "[DTO, dithiooxamide]", "values": [
      {"measurement": "Leach time to maximum gold extraction", "setting": "[1]", "result": 4, "unit": "h"},
      {"measurement": "Solubility in water", "setting": "physchem", "result": "does not have good solubility in water"},
      {"measurement": "Solubility of the ligand", "setting": "physchem", "result": "extremely low"},
      {"measurement": "pKa", "setting": "physchem", "result": 11},
      {"measurement": "solubility", "setting": "physchem; pH 12, aqueous buffer, thermodynamic from solid", "result": "~900", "unit": "µg/mL"},
      {"measurement": "Dissolution of ligand in water pre-adjusted to leach pH", "setting": "physchem; pH 13.5 to 14 compared with pH 11 to 13", "result": "dissolved far more readily"}
    ]}
  ]
}
